# From patent publication US12498382B2, “Biomarkers for vitiligo” (INCYTE CORPORATION, priority 2019, dated 2025)
# System: HaCaT cells
# Assay: Concentrations of inflammatory mediators produced by HaCaT cells stimulated with TNFα and IFNγ in presence/absence of JAK inhibitors (ProCarta)
# Assay type: cell-based, human
# Experimental: After 48 hours, cell culture media was removed from 24 well plates and replaced with 250 uL of media containing serial diluted drug, then incubated for 15 minutes at 37° C./5% CO2. […] The final concentration of Recombinant Human Interferon gamma and Recombinant Human Tumor Necrosis Factor alpha was 25 ng/mL of each cytokine. Cytokine stimulation added to wells containing drug brought the final concentrations for each drug treatment to 25 nM, 50 nM, 100 nM, and 200 nM. Treated plates were mixed by gentle agitation for 30 seconds then incubated for 24 hours at 37° C./5% CO2. At the end of the 24 hour incubation media was immediately removed from each plate.
# Media was incubated with antibody conjugated beads designed to bind to the epitopes of specific target proteins and identify the bound protein through the bead's distinctive spectral pattern. Biotinylated detection antibodies, designed to bind to different epitopes of the same target proteins, and Streptavidin-PE are added to assay plates to quantify the amount of the target proteins. Assay plates were read on the Luminex 200 and data were expressed as Net Median Fluorescence Intensity. […] The concentration of each protein was extrapolated from the antigen standard curve and concentrations were expressed as pg/mL (Table 15).
# [1] = TNFα 25 ng/mL + IFNγ 25 ng/mL, drug 25 nM
# [2] = TNFα 25 ng/mL + IFNγ 25 ng/mL, drug 50 nM
# [3] = TNFα 25 ng/mL + IFNγ 25 ng/mL, drug 100 nM
# [4] = TNFα 25 ng/mL + IFNγ 25 ng/mL, drug 200 nM
smiles,measurement,setting,value
Cc1n[nH]c(C)c1-c1cnn(C2(CC#N)CN(c3cc(F)c(C(=O)N[C@@H](C)C(F)(F)F)cc3F)C2)c1 [Cpc C],BDNF concentration,[1],4.01 ± 0.19 pg/mL
same,EGF concentration,[1],1.54 ± 0.13 pg/mL
same,Eotaxin concentration,[1],10.08 ± 0.15 pg/mL
same,FGF-2 concentration,[1],21.41 ± 1.39 pg/mL
same,GM-CSF concentration,[1],130 ± 3.15 pg/mL
same,GRO alpha concentration,[1],548.93 ± 27.91 pg/mL
same,HGF concentration,[1],13.66 ± 0.51 pg/mL
same,IFN alpha concentration,[1],0.25 ± 0.01 pg/mL
same,bNGF concentration,[1],7.86 ± 0.56 pg/mL
same,BDNF concentration,[2],4 ± 0.23 pg/mL
same,EGF concentration,[2],1.14 ± 0.17 pg/mL
same,Eotaxin concentration,[2],9.84 ± 0.25 pg/mL
same,FGF-2 concentration,[2],20.77 ± 1.37 pg/mL
same,GM-CSF concentration,[2],126.18 ± 3.4 pg/mL
same,GRO alpha concentration,[2],544.74 ± 37.71 pg/mL
same,HGF concentration,[2],13.04 ± 0.28 pg/mL
same,IFN alpha concentration,[2],0.26 ± 0 pg/mL
same,bNGF concentration,[2],6.86 ± 0.6 pg/mL
same,BDNF concentration,[3],4.24 ± 0.26 pg/mL
same,EGF concentration,[3],1.35 ± 0.18 pg/mL
same,Eotaxin concentration,[3],9.89 ± 0.22 pg/mL
same,FGF-2 concentration,[3],20.84 ± 1.31 pg/mL
same,GM-CSF concentration,[3],134.94 ± 4.45 pg/mL
same,GRO alpha concentration,[3],575.98 ± 43.22 pg/mL
same,HGF concentration,[3],13.53 ± 0.5 pg/mL
same,IFN alpha concentration,[3],0.26 ± 0 pg/mL
same,bNGF concentration,[3],6.93 ± 1.04 pg/mL
same,BDNF concentration,[4],3.97 ± 0.22 pg/mL
same,EGF concentration,[4],1.46 ± 0.17 pg/mL
same,Eotaxin concentration,[4],9.89 ± 0.21 pg/mL
same,FGF-2 concentration,[4],20.93 ± 1.37 pg/mL
same,GM-CSF concentration,[4],132.6 ± 3.95 pg/mL
same,GRO alpha concentration,[4],560.99 ± 43.32 pg/mL
same,HGF concentration,[4],13.6 ± 0.53 pg/mL
same,IFN alpha concentration,[4],0.26 ± 0 pg/mL
same,bNGF concentration,[4],5.7 ± 0.76 pg/mL
same,BDNF concentration,"no stimulation, drug 200 nM",5.7 ± 0.31 pg/mL
same,EGF concentration,"no stimulation, drug 200 nM",1.12 ± 0.14 pg/mL
same,Eotaxin concentration,"no stimulation, drug 200 nM",2.28 ± 0.07 pg/mL
same,FGF-2 concentration,"no stimulation, drug 200 nM",8.77 ± 0.79 pg/mL
same,GM-CSF concentration,"no stimulation, drug 200 nM",9.48 ± 1.48 pg/mL
same,GRO alpha concentration,"no stimulation, drug 200 nM",236.87 ± 11.04 pg/mL
same,HGF concentration,"no stimulation, drug 200 nM",4.74 ± 0.47 pg/mL
same,IFN alpha concentration,"no stimulation, drug 200 nM",0.2 ± 0.03 pg/mL
same,IFN gamma concentration,"no stimulation, drug 200 nM",3.81 ± 0.74 pg/mL
same,bNGF concentration,"no stimulation, drug 200 nM",3.73 ± 0.63 pg/mL
CC(O)c1nc2cnc3ccsc3c2n1C1CCC(CC#N)OC1 (centres unmarked) [Cpc D],BDNF concentration,[1],4.08 ± 0.26 pg/mL
same,EGF concentration,[1],1.49 ± 0.14 pg/mL
same,Eotaxin concentration,[1],9.82 ± 0.2 pg/mL
same,FGF-2 concentration,[1],22.89 ± 1.39 pg/mL
same,GM-CSF concentration,[1],126.24 ± 3.53 pg/mL
same,GRO alpha concentration,[1],539.42 ± 38.03 pg/mL
same,HGF concentration,[1],13.47 ± 0.45 pg/mL
same,IFN alpha concentration,[1],0.26 ± 0.01 pg/mL
same,bNGF concentration,[1],7.44 ± 0.63 pg/mL
same,BDNF concentration,[2],3.97 ± 0.25 pg/mL
same,EGF concentration,[2],1.31 ± 0.19 pg/mL
same,Eotaxin concentration,[2],9.58 ± 0.21 pg/mL
same,FGF-2 concentration,[2],20.96 ± 1.43 pg/mL
same,GM-CSF concentration,[2],124.89 ± 3.37 pg/mL
same,GRO alpha concentration,[2],555.54 ± 44.74 pg/mL
same,HGF concentration,[2],13.27 ± 0.45 pg/mL
same,IFN alpha concentration,[2],0.26 ± 0 pg/mL
same,bNGF concentration,[2],6.17 ± 0.74 pg/mL
same,BDNF concentration,[3],4.18 ± 0.28 pg/mL
same,EGF concentration,[3],1.23 ± 0.16 pg/mL
same,Eotaxin concentration,[3],10.02 ± 0.19 pg/mL
same,FGF-2 concentration,[3],21.77 ± 1.51 pg/mL
same,GM-CSF concentration,[3],133.19 ± 3.97 pg/mL
same,GRO alpha concentration,[3],578.28 ± 48.32 pg/mL
same,HGF concentration,[3],13.75 ± 0.4 pg/mL
same,IFN alpha concentration,[3],0.26 ± 0 pg/mL
same,bNGF concentration,[3],7.12 ± 0.8 pg/mL
same,BDNF concentration,[4],4.03 ± 0.28 pg/mL
same,EGF concentration,[4],1.45 ± 0.17 pg/mL
same,Eotaxin concentration,[4],9.85 ± 0.17 pg/mL
same,FGF-2 concentration,[4],20.96 ± 1.34 pg/mL
same,GM-CSF concentration,[4],130.42 ± 3.44 pg/mL
same,GRO alpha concentration,[4],564.53 ± 52.35 pg/mL
same,HGF concentration,[4],13.8 ± 0.48 pg/mL
same,IFN alpha concentration,[4],0.25 ± 0.02 pg/mL
same,bNGF concentration,[4],6.73 ± 0.61 pg/mL
same,BDNF concentration,"no stimulation, drug 200 nM",5.66 ± 0.38 pg/mL
same,EGF concentration,"no stimulation, drug 200 nM",1.24 ± 0.09 pg/mL
same,Eotaxin concentration,"no stimulation, drug 200 nM",2.08 ± 0.07 pg/mL
same,FGF-2 concentration,"no stimulation, drug 200 nM",8.19 ± 1.07 pg/mL
same,GM-CSF concentration,"no stimulation, drug 200 nM",8.49 ± 1.84 pg/mL
same,GRO alpha concentration,"no stimulation, drug 200 nM",234.42 ± 14.21 pg/mL
same,HGF concentration,"no stimulation, drug 200 nM",3.68 ± 0.39 pg/mL
same,IFN alpha concentration,"no stimulation, drug 200 nM",0.22 ± 0.03 pg/mL
same,IFN gamma concentration,"no stimulation, drug 200 nM",4.52 ± 0.68 pg/mL
same,bNGF concentration,"no stimulation, drug 200 nM",3.47 ± 0.48 pg/mL
